Results on six molecules are retold here after ChEMBL document CHEMBL5537120 (Eur J Med Chem, 2024).

Activity calls are given as the source filed them. No cut-off for these calls is given here. Where a SMILES comes first, the peptide text is derived from it. Bridges are numbered along the chain shown (N, C = ends).

For experiment [1], the target named is Angiotensin-converting enzyme 2 (Homo sapiens, UniProt Q9BYF1). Kind of experiment: Binding affinity to ACE2 (unknown origin) by MST analysis.
The next experiment has as its target Neuropilin-1 (Homo sapiens, UniProt O14786). Kind of experiment: Binding affinity to NRP1 (unknown origin) by MST analysis.
The test system of experiment [2] is SARS-CoV-2. Nature of the experiment: Antiviral activity against HIV-1 pseudotyped SARS-CoV-2 Omicron BA.2.75 infected in HEK293T cells expressing ACE2/NRP1 assessed as reduction in viral replication at 1.6 uM pretreated with cells for 1 hr followed by viral infection and measured after 2 days by firefly luciferase reporter gene assay. It counts as functional, organism-based. Particulars: Severe acute respiratory syndrome coronavirus 2, time 49.0 hrs.

Experiment [3] deals with SARS-CoV-2. Kind of experiment: microbe, parasite or virus in culture. Conditions: Severe acute respiratory syndrome coronavirus 2, Omicron BA.2.75, HEK-293T, 49 h, read-out: INH.
The subject of experiment [4] is SARS-CoV-2. Nature of the experiment: microbe, parasite or virus in culture. Conditions: Severe acute respiratory syndrome coronavirus 2, Beta, HEK-293T.
Description: Antiviral activity against HIV-1 pseudotyped SARS-CoV-2 Beta infected in HEK293T cells expressing ACE2/NRP1 assessed as reduction in infection rate pretreated with cells for 1 hr followed by viral infection and measured after 2 days by firefly luciferase reporter gene assay
Experiment [5] deals with SARS-CoV-2. Kind of experiment: microbe, parasite or virus in culture. Conditions: Severe acute respiratory syndrome coronavirus 2, Delta, HEK-293T.
Description: Antiviral activity against HIV-1 pseudotyped SARS-CoV-2 Delta infected in HEK293T cells expressing ACE2/NRP1 assessed as reduction in infection rate pretreated with cells for 1 hr followed by viral infection and measured after 2 days by firefly luciferase reporter gene assay
Experiment [6] deals with SARS-CoV-2. Kind of experiment: microbe, parasite or virus in culture. Particulars: Severe acute respiratory syndrome coronavirus 2, Alpha, HEK-293T.
Description: Antiviral activity against HIV-1 pseudotyped SARS-CoV-2 Alpha infected in HEK293T cells expressing ACE2/NRP1 assessed as reduction in infection rate pretreated with cells for 1 hr followed by viral infection and measured after 2 days by firefly luciferase reporter gene assay
The subject of experiment [7] is SARS-CoV-2. Kind of experiment: microbe, parasite or virus in culture. Particulars: Severe acute respiratory syndrome coronavirus 2, Omicron BA.2.75, HEK-293T.
Description: Antiviral activity against HIV-1 pseudotyped SARS-CoV-2 Omicron BA.2.75 infected in HEK293T cells expressing ACE2/NRP1 assessed as reduction in infection rate pretreated with cells for 1 hr followed by viral infection and measured after 2 days by firefly luciferase reporter gene assay

Chain of Neuropilin-1 (O14786 whole entry): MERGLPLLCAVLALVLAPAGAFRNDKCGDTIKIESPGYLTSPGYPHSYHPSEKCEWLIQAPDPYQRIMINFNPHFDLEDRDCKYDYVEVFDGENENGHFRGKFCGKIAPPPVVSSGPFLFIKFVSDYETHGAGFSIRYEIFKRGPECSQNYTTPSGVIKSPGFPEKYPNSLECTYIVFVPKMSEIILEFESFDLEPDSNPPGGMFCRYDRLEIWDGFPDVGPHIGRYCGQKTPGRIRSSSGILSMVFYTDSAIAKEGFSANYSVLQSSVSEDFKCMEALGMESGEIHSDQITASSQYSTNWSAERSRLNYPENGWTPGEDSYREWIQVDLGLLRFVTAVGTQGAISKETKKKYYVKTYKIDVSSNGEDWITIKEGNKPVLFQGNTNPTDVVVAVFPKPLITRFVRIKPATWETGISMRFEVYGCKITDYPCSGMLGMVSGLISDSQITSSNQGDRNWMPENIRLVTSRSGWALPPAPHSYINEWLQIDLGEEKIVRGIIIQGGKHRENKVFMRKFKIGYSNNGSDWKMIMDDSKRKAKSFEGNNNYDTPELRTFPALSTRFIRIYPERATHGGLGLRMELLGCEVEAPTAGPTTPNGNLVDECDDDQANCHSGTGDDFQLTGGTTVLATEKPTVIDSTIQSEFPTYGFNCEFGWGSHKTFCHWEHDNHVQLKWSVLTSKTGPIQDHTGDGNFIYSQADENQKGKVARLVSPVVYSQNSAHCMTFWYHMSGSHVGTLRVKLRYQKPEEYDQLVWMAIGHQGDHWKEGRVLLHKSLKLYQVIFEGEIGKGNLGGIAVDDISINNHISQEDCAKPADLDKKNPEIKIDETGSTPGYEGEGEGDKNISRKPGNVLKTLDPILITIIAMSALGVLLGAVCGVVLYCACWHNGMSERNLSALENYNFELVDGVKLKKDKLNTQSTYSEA
Chain of Angiotensin-converting enzyme 2 (Q9BYF1 whole entry): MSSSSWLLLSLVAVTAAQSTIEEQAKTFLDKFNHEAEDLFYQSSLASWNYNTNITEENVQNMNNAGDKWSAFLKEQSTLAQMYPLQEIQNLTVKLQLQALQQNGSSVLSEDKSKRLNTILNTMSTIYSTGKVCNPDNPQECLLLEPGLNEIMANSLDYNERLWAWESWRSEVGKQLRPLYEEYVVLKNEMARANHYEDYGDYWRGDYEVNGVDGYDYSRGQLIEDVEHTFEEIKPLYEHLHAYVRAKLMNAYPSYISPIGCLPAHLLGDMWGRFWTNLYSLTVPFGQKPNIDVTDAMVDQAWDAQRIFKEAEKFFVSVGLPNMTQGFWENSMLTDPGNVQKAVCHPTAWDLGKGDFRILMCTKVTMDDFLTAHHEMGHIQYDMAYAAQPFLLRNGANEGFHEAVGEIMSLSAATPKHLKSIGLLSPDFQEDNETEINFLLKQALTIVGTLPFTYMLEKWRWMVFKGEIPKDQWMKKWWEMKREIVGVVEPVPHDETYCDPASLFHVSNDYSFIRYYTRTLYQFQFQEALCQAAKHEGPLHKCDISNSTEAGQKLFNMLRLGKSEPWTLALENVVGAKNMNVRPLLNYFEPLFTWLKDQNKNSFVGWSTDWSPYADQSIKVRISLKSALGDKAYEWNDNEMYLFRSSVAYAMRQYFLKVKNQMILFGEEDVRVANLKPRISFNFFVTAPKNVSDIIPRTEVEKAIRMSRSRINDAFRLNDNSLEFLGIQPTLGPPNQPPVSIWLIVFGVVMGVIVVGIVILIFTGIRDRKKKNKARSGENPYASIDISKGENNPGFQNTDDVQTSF

Turning to `CSCC[C@@H](NC(=O)CNC(=O)CNC(=O)[C@@H](Cc1ccc(O)cc1)NC(=O)[C@@H](Cc1c[nH]c2ccccc12)NC(=O)CNC(=O)[C@@H](Cc1ccc(O)cc1)NC(=O)[C@@H](Cc1ccccc1)NC(=O)[C@@H](Cc1ccccc1)NC(=O)Cc1ccc2ccccc2c1)C(=O)N[C@H](CCC(=O)O)C(=O)N[C@H](CCCCN)C(=O)N[C@H](CC(C)C)C(=O)N[C@H](CC(C)C)C(=O)N[C@H](CCCNC(=N)N)C(=O)NCC(=O)NCC(=O)N[C@H](CCCNC(=N)N)C(=O)NCC(=O)N[C@H](CCC(=O)O)C(=O)N[C@H](CCCNC(=N)N)C(=O)N1CCC[C@@H]1C(=O)N1CCC[C@@H]1C(=O)N[C@H](CCCNC(=N)N)C(=O)O`, the results for the Kd result (in experiment [1]; on Neuropilin-1) were “Not Active” and 106 nM, respectively.

As to `CC(C)C[C@@H]1NC(=O)[C@@H]2CCCN2C(=O)[C@H](CO)NC(=O)[C@@H](NC(=O)[C@H](Cc2cnc[nH]2)NC(=O)[C@H](CO)NC(=O)[C@H](Cc2ccccc2)NC(=O)[C@H](CC(=O)O)NC(=O)CN)CSSC[C@@H](C(=O)N[C@H](C(=O)N[C@@H](Cc2ccc(O)cc2)C(=O)N2CCC[C@H]2C(=O)N[C@@H](CC(=O)O)C(=O)N2CCC[C@H]2C(=O)N[C@@H](CCC(=O)O)C(=O)NCC(=O)NCC(=O)NCC(=O)N[C@@H](CCCCN)C(=O)N2CCC[C@H]2C(=O)N[C@@H](C)C(=O)N[C@@H](CCCNC(=N)N)C(=O)N2CCC[C@H]2C(=O)N[C@@H](C)C(=O)N[C@@H](CCCNC(=N)N)C(=O)O)[C@@H](C)O)NC(=O)[C@H](CCCCN)NC(=O)[C@H](Cc2ccccc2)NC(=O)[C@H](Cc2c[nH]c3ccccc23)NC(=O)[C@@H]2CCCN2C(=O)[C@H](Cc2ccccc2)NC(=O)[C@H](Cc2ccc(O)cc2)NC(=O)[C@H](CCCNC(=N)N)NC1=O` (H-GDFSHCSPLRYFPWFKCTYPDPEGGGKPARPAR-OH; disulfide 6-17), the Kd on Neuropilin-1 was determined as 13.4 nM. In addition, the outcome in the experiment on SARS-CoV-2 [2] was Active. Also, in the experiment with SARS-CoV-2 [3], the inhibition at 1.6 µM is 70%. Moreover, the EC50 with SARS-CoV-2 [4] is 2190 nM; in the experiment on SARS-CoV-2 [5] it was 1200 nM; with SARS-CoV-2 [6], 2730 nM; in the experiment on SARS-CoV-2 [7], 450 nM.

In turn, `CC[C@H](C)[C@H](NC(=O)[C@H](Cc1ccccc1)NC(=O)[C@H](CCCCN)NC(=O)[C@H](CC(=O)O)NC(=O)CN)C(=O)N[C@H]1CSSC[C@@H](C(=O)N[C@@H](CC(N)=O)C(=O)N[C@@H](Cc2c[nH]c3ccccc23)C(=O)N[C@@H](Cc2ccc(O)cc2)C(=O)N[C@@H](CC(=O)O)C(=O)N2CCC[C@H]2C(=O)N[C@@H](CCC(=O)O)C(=O)NCC(=O)NCC(=O)NCC(=O)N[C@@H](CCCCN)C(=O)NCC(=O)N[C@@H](CC(N)=O)C(=O)N[C@@H](CCCNC(=N)N)C(=O)N2CCC[C@H]2C(=O)N2CCC[C@H]2C(=O)N[C@@H](CCCNC(=N)N)C(=O)O)NC(=O)[C@H](Cc2ccccc2)NC(=O)[C@H](CCCCN)NC(=O)[C@H](Cc2c[nH]c3ccccc23)NC(=O)[C@@H]2CCCN2C(=O)[C@H](CCCCN)NC(=O)[C@H](CC(=O)O)NC(=O)[C@H](CCCNC(=N)N)NC(=O)[C@H]([C@@H](C)CC)NC(=O)[C@@H]2CCCN2C(=O)[C@H](CC(C)C)NC1=O` (H-GDKFICLPIRDKPWKFCNWYDPEGGGKGNRPPR-OH; disulfide 6-17) yielded a Kd at Neuropilin-1 of 96.7 nM. Further, the result in the experiment on SARS-CoV-2 [2] was Active.

In turn, `CC(C)C[C@H](NC(=O)[C@H](CC(=O)O)NC(=O)CN)C(=O)N[C@@H](Cc1cnc[nH]1)C(=O)N[C@@H](C)C(=O)N[C@H]1CSSC[C@@H](C(=O)N[C@H](C(=O)N[C@@H](CC(C)C)C(=O)NCC(=O)N[C@@H](CC(=O)O)C(=O)N2CCC[C@H]2C(=O)N[C@@H](CCC(=O)O)C(=O)NCC(=O)NCC(=O)NCC(=O)N[C@@H](CCCNC(=N)N)C(=O)N[C@@H](CO)C(=O)N2CCC[C@H]2C(=O)N[C@@H](CCCNC(=N)N)C(=O)N[C@@H](CCCNC(=N)N)C(=O)N[C@@H](C)C(=O)N[C@@H](CCCNC(=N)N)C(=O)O)[C@@H](C)O)NC(=O)[C@H](C)NC(=O)[C@H](Cc2c[nH]c3ccccc23)NC(=O)[C@H](Cc2c[nH]c3ccccc23)NC(=O)[C@@H]2CCCN2C(=O)[C@H](CC(=O)O)NC(=O)CNC(=O)[C@H](CCCNC(=N)N)NC(=O)[C@H](C(C)C)NC(=O)[C@@H]2CCCN2C(=O)[C@H](CCCNC(=N)N)NC1=O` (H-GDLHACRPVRGDPWWACTLGDPEGGGRSPRRAR-OH; disulfide 6-17) registered a Kd on Neuropilin-1 of 17.6 nM. In addition, the outcome in the experiment with SARS-CoV-2 [2] was Active.

The molecule `CC[C@H](C)[C@@H]1NC(=O)[C@@H]2CCCN2C(=O)[C@H](CO)NC(=O)[C@@H](NC(=O)[C@@H](NC(=O)[C@H](Cc2ccc(O)cc2)NC(=O)[C@H](CCCNC(=N)N)NC(=O)[C@H](CC(=O)O)NC(=O)CN)[C@@H](C)O)CSSC[C@@H](C(=O)N[C@@H](CC(=O)O)C(=O)N[C@@H](CC(C)C)C(=O)NCC(=O)N[C@@H](CC(=O)O)C(=O)N2CCC[C@H]2C(=O)N[C@@H](CCC(=O)O)C(=O)NCC(=O)NCC(=O)NCC(=O)N[C@@H](CCCCN)C(=O)N[C@@H](C)C(=O)N2CCC[C@H]2C(=O)N[C@@H](CCCNC(=N)N)C(=O)N[C@@H](CCCNC(=N)N)C(=O)N[C@@H](C)C(=O)N[C@@H](CCCNC(=N)N)C(=O)O)NC(=O)[C@H](CCCNC(=N)N)NC(=O)[C@H](Cc2c[nH]c3ccccc23)NC(=O)[C@H](Cc2c[nH]c3ccccc23)NC(=O)[C@@H]2CCCN2C(=O)[C@H](Cc2ccccc2)NC(=O)[C@H](CCSC)NC(=O)[C@H](CCCNC(=N)N)NC1=O` (H-GDRYTCSPIRMFPWWRCDLGDPEGGGKAPRRAR-OH; disulfide 6-17) had a Kd on Neuropilin-1 of 22.5 nM. Further, in the experiment with SARS-CoV-2 [2], the result was Active.

At Neuropilin-1, `CC(C)C[C@@H]1NC(=O)[C@H](C)NC(=O)[C@H](CCCNC(=N)N)NC(=O)[C@@H](NC(=O)[C@@H]2CCCN2C(=O)[C@H](CO)NC(=O)[C@H](Cc2ccc(O)cc2)NC(=O)[C@H](CC(=O)O)NC(=O)CN)CSSC[C@@H](C(=O)N2CCC[C@H]2C(=O)N[C@@H](CO)C(=O)NCC(=O)N[C@@H](CC(=O)O)C(=O)N2CCC[C@H]2C(=O)N[C@@H](CCC(=O)O)C(=O)NCC(=O)NCC(=O)NCC(=O)N[C@@H](CCCNC(=N)N)C(=O)NCC(=O)N[C@@H](CCCNC(=N)N)C(=O)N[C@@H](CCCNC(=N)N)C(=O)N2CCC[C@H]2C(=O)N2CCC[C@H]2C(=O)N[C@@H](CCCNC(=N)N)C(=O)O)NC(=O)[C@H](CCCNC(=N)N)NC(=O)[C@H](Cc2c[nH]c3ccccc23)NC(=O)[C@H](Cc2c[nH]c3ccccc23)NC(=O)[C@@H]2CCCN2C(=O)[C@H](CO)NC(=O)[C@H](Cc2cnc[nH]2)NC(=O)[C@H](CCCNC(=N)N)NC1=O` (H-GDYSPCRALRHSPWWRCPSGDPEGGGRGRRPPR-OH; disulfide 6-17) gave a Kd of 76.3 nM. The outcome in the experiment on SARS-CoV-2 [2] was Active.
